Laboratory results from patent publication US9907859B2 (priority 2010, dated 2018).
Read-outs that look alike come from different tables or passages of the source.

Tests used:
VV [1] = conditions: in vivo; cited from earlier work
[2] = New Zealand White, rabbit, in vivo
[3] = female, CD-1, mouse, in vivo; for Cmax: iv
ECTV = conditions: in vivo; cited from earlier work
vaccinia virus (VV) = conditions: in vitro, read-out: 50% effective concentration [EC50], inhibition of virus replication; cited from earlier work
in vivo = conditions: New Zealand White, rabbit, iv; for clearance: CL
[4] = in vivo
physchem = conditions: thermodynamic from solid
[5] = rabbit, in vivo
[6] = both, cynomolgus monkey, in vivo, po
VV [7] = conditions: mouse, in vivo; cited from earlier work
ectromelia virus (ECTV) = conditions: read-out: 50% effective concentration [EC50], inhibition of virus replication; cited from earlier work
camelpox = conditions: read-out: 50% effective concentration [EC50], inhibition of virus replication; cited from earlier work
[8] = both, cynomolgus monkey, in vivo; for AUCINF—obs / Cmax / CL / T1/2 / Tmax: iv
[9] = both, New Zealand White, rabbit, in vivo, po, 100 mg/kg
variola viruses = conditions: in vitro, read-out: 50% effective concentration [EC50], inhibition of virus replication; cited from earlier work

O=C(NN1C(=O)C2C3C=CC(C4CC34)C2C1=O)c1ccc(C(F)(F)F)cc1 (centres unmarked) [ST-246, 4-trifluoromethyl-N-(3,3a,4,4a,5,5a,6,6a-octahydro-1,3-dioxo-4,6-ethenocycloprop[f]isoindol-2(1H)-yl)-benzamide]
preventing or reducing mortality (VV [1]): highly effective in preventing or reducing mortality | toxicity in animal model (VV [1]): nontoxic | AUC0-24 hr ([2]; both, iv, 3 mg/kg): 3390 ± 1070 ng·h/mL | CL ([2]; both, iv, 3 mg/kg): 16.1 ± 6.05 mL/min/kg | mean maximum plasma concentration ([2]; both, iv, 30 mg/kg): 38.5 µg/mL | peak plasma concentration ([2]; female, 3 mg/kg): 4345 ng/mL | peak plasma concentration ([2]; male, 3 mg/kg): 7225 ng/mL | average plasma concentration at the end of infusion ([3]; 75 mg/kg): 238, 333 ng/mL | Cmax ([3]; 10 mg/kg): 64000 ng/mL | Cmax ([3]; 30 mg/kg): 147333 ng/mL | Cmax ([3]; 75 mg/kg): 238000 ng/mL | preventing or reducing mortality (ECTV): highly effective in preventing or reducing mortality | toxicity in animal model (ECTV): nontoxic | EC50 (vaccinia virus (VV)): ≤ 70 nM | AUC(0-t) (in vivo; 1 mg/kg, AUC0-24 hr): 1430 ± 400 ng·h/mL | clearance (in vivo; 1 mg/kg): 27.7 mL/min/kg | Cmax (in vivo; 1 mg/kg, Cmax): 1670 ± 2270 ng/mL | half-life (in vivo; 1 mg/kg, T1/2): 0.9 ± 0.2 h | AUC(0-t) (in vivo; both, 3 mg/kg, AUC0-24): 2380 ng·h/mL | AUC(0-t) (in vivo; both, 3 mg/kg, AUC0-24 hr): 2380 ± 930 ng·h/mL | clearance (in vivo; both, 3 mg/kg): 22.3 mL/min/kg | Cmax (in vivo; both, 3 mg/kg, Cmax): 3030 ± 370 ng/mL | Cmax (in vivo; both, 3 mg/kg, mean Cmax): 5790 ng/mL | AUC(0-t) (in vivo; both, 30 mg/kg, AUC0-24 hr): 13300 ± 700 ng·h/mL | clearance (in vivo; both, 30 mg/kg): 37.1 mL/min/kg | Cmax (in vivo; both, 30 mg/kg, Cmax): 38500 ± 3700 ng/mL | half-life (in vivo; both, 30 mg/kg, T1/2): 12.2 ± 5.8 h | AUC(0-t) (in vivo; both, 60 mg/kg, AUC0-24 hr): 61800 ± 8700 ng·h/mL | clearance (in vivo; both, 60 mg/kg): 16.4 mL/min/kg | Cmax (in vivo; both, 60 mg/kg, Cmax): 94100 ± 11100 ng/mL | half-life (in vivo; both, 60 mg/kg, T1/2): 5.2 ± 0.8 h | Cmax (in vivo; both, 60 mg/kg, mean Cmax): 94100 ng/mL | half-life (in vivo; both, elimination half-lives): 1 to 12.2 h | AUC(0-t) (in vivo; female, 1 mg/kg, AUC0-24): 1150 ng·h/mL | Cmax (in vivo; female, 1 mg/kg, Cmax): 679 ng/mL | half-life (in vivo; female, 1 mg/kg, T1/2): 0.69 h | AUC(0-t) (in vivo; female, 3 mg/kg, AUC0-24): 3210 ng·h/mL | Cmax (in vivo; female, 3 mg/kg, Cmax): 3340 ng/mL | AUC(0-t) (in vivo; female, 30 mg/kg, AUC0-24): 14900 ng·h/mL | Cmax (in vivo; female, 30 mg/kg, Cmax): 37000 ng/mL | half-life (in vivo; female, 30 mg/kg, T1/2): 16.3 h | AUC(0-t) (in vivo; female, 60 mg/kg, AUC0-24): 60100 ng·h/mL | Cmax (in vivo; female, 60 mg/kg, Cmax): 88200 ng/mL | half-life (in vivo; female, 60 mg/kg, T1/2): 4.6 h | AUC(0-t) (in vivo; male, 1 mg/kg, AUC0-24): 1710 ng·h/mL | Cmax (in vivo; male, 1 mg/kg, Cmax): 769 ng/mL | half-life (in vivo; male, 1 mg/kg, T1/2): 1.1 h | AUC(0-t) (in vivo; male, 3 mg/kg, AUC0-24): 1870 ng·h/mL | half-life (in vivo; male, 3 mg/kg, T1/2): 3.2 h | AUC(0-t) (in vivo; male, 30 mg/kg, AUC0-24): 16200 ng·h/mL | Cmax (in vivo; male, 30 mg/kg, Cmax): 40000 ng/mL | half-life (in vivo; male, 30 mg/kg, T1/2): 8.1 h | AUC(0-t) (in vivo; male, 60 mg/kg, AUC0-24): 72300 ng·h/mL | Cmax (in vivo; male, 60 mg/kg, Cmax): 99800 ng/mL | half-life (in vivo; male, 60 mg/kg, T1/2): 5.7 h | time to recovery ([4]; female, CD-1, mouse, iv, 75 mg/kg): 2 to 3 h | tolerability ([4]; mouse): well-tolerated | toxicity after bolus IV injection ([4]; mouse, iv, 34 mg/kg): some dose-related toxicity and mortality | clinical signs ([4]; mouse, iv, 75 mg/kg): unsteady gait | clinical signs ([4]; mouse, iv, 100 mg/kg): clinical signs of labored breathing and lethargy | solubility (physchem; oil or lipid, absolute solubility of ST-246 in oils): < 5000 µg/mL | solubility (physchem; pH 6.8, aqueous buffer, ST-246 Solubility): < 100 µg/mL | solubility (physchem; simulated gastric fluid, ST-246 Solubility): < 100 µg/mL | solubility (physchem; water, ST-246 Solubility): < 100 µg/mL | time to full recovery ([5]; both, New Zealand White, iv, 60 mg/kg): 30 to 60 min | tolerability [5]: well-tolerated | tolerability ([5]; 3 mg/kg): well-tolerated | tolerability ([5]; iv, 1 mg/kg): well tolerated | clinical signs ([5]; iv, 60 mg/kg): lethargy, labored breathing and narcosis | increase of exposure (AUCinf-obs) [6]: 84 fold | increase of maximum plasma concentration (Cmax) [6]: 37 fold | HL_Lambda_z ([6]; 10 mg/kg): 7.0 ± 0.9 h | HL_Lambda_z ([6]; 20 mg/kg): 7.2 ± 2.3 h | tail lesions (VV [7]): significantly reduced | EC50 (ectromelia virus (ECTV)): ≤ 70 nM | EC50 (camelpox): ≤ 70 nM | Cmax higher for 4 hour vs 6 hour infusions [8]: approximately 50% | exposure higher for 4 hour vs 6 hour infusions [8]: approximately 20% | terminal elimination half-life [8]: 9.1 h | AUCINF—obs ([8]; 1 mg/kg): 1940 ± 460 ng·h/mL | Cmax ([8]; 1 mg/kg): 384 ± 112 ng/mL | AUCINF—obs ([8]; 3 mg/kg): 5830 ± 870 ng·h/mL | Cmax ([8]; 3 mg/kg): 1050 ± 190 ng/mL | CL ([8]; 10 mg/kg): 7.15 ± 1.23 mL/min/kg | T1/2 ([8]; 10 mg/kg): 8.9 ± 2.5 h | AUCINF—obs ([8]; 15 mg/kg): 48700 ± 7500 ng·h/mL | Cmax ([8]; 15 mg/kg): 9080 ± 950 ng/mL | AUCINF—obs ([8]; 20 mg/kg): 47900 ± 6100 ng·h/mL | CL ([8]; 20 mg/kg): 7.22 ± 0.883 mL/min/kg | Cmax ([8]; 20 mg/kg): 7480 ± 400 ng/mL | Tmax ([8]; 20 mg/kg): 6 h | AUCINF—obs ([8]; 30 mg/kg): 87200 ± 14600 ng·h/mL | CL ([8]; 30 mg/kg): 6.03 ± 1.02 mL/min/kg | Cmax ([8]; 30 mg/kg): 13900 ± 1300 ng/mL | T1/2 ([8]; 30 mg/kg): 6.9 ± 0.8 h | Tmax ([8]; 30 mg/kg): 6 h | AUC0-24 hr [9]: 19800 ± 16600 ng·h/mL | EC50 (variola viruses): ≤ 70 nM
